Experiments:
Type in all cases: cell-based
[1] = biological target: T1, human CYP11B2 (Homo sapiens, UniProt P19099); experiment: V79-Human-CYP11B2 cell assay, modified protocol (600,000 cells/mL); conditions: 0.30 μl inhibitor
T1 construct: expressed in transfected cells; host or cells: V79 cells (clone V79-hCYP11B2-CLE9)
T1 sequence (P19099 25-503): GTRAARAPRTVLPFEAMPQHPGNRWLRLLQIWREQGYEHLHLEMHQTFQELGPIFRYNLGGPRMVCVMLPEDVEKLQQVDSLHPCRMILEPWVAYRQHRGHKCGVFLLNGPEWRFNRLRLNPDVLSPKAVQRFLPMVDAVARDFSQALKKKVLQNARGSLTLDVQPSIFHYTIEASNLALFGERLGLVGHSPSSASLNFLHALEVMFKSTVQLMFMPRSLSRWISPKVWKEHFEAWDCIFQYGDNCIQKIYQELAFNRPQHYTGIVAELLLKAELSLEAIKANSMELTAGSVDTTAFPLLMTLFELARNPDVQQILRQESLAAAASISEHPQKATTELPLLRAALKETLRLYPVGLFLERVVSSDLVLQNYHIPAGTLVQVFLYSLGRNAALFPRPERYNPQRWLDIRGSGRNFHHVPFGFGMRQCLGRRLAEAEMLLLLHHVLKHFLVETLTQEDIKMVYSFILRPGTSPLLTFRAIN
Experimental: (§1) V79 cell lines stably expressing the either the human CYP11B2 or the human CYP11B1 enzyme were generated using a standard transfection protocol. V79 cells were transfected with plasmids pTriEx3-Hygro-hCyp11B2 or pTriEx3-Hygro-hCyp11B1 using Lipofectamine2000 reagent. V79 cells that stably express the human CYP11B2 or human CYP11B1 enzyme were selected for and maintained in DMEM supplemented with 10% FBS and 400 μg/mL hygromycin for ˜2 weeks. Single cell clones were generated by infinite dilution in DMEM supplemented with 10% FBS and 400 μg/mL hygromycin until single colonies were obtained. […] For testing of inhibitors, cells were harvested at 80% confluency with 0.5% Trypsan-EDTA, washed once in PBS, and reconstituted in DMEM+0.1% BSA media at a cell concentration of 400,000 cells/mL. 25 μl of cells were added to a 384 well tissue culture treated plate and mixed with 0.25 μl of inhibitor or DMSO (1% final DMSO concentration) for 1 hour at 37° C., 5% CO2. After pre-incubation with inhibitor, the reaction was initiated by adding 5 μl of substrate (final concentration of 125 nM 11-deoxycorticosterone for the CYP11B2 assay or 250 nM 11-deoxycortisol for the CYP11B1 assay). The reaction was carried out for 3 hours at 37° C., 5% CO2 and was stopped by harvesting the supernatants. The amount of product in the supernatant (aldosterone for CYP11B2 assay and cortisol for the CYP11B1 assay) was measured using HTRF-based assay kit (Aldosterone HTRF-CisBio#64ALDPEB, Cortisol HTRF-CisBio #631DC002-CORT). IC50's for the inhibitor were determined by plotting the amount of product formed against the concentration of inhibitor using sigmoidal dose-response curve (variable slope) fit in GraphPad.
(§2) For the CYP11B2 assay, cells were reconstituted in DMEM+0.1% BSA media at a cell concentration of 600,000 cells/mL and for the CYP11B1 assay cells were reconstituted in DMEM+0.1% BSA media at a cell concentration of 280,000 cells/mL. 25 μl of cells were added to a 384 well tissue culture treated plate and mixed with 0.30 μl of inhibitor or DMSO (1% final DMSO concentration) for 1 hour at 37° C., 5% CO2.

[2] = biological target: T2, human CYP11B1 (Homo sapiens, UniProt P15538); experiment: V79-Human-CYP11B1 cell assay, modified protocol (280,000 cells/mL); conditions: 0.30 μl inhibitor
T2 construct: expressed in transfected cells; host or cells: V79MZh11B1 cells
T2 sequence (P15538 25-503): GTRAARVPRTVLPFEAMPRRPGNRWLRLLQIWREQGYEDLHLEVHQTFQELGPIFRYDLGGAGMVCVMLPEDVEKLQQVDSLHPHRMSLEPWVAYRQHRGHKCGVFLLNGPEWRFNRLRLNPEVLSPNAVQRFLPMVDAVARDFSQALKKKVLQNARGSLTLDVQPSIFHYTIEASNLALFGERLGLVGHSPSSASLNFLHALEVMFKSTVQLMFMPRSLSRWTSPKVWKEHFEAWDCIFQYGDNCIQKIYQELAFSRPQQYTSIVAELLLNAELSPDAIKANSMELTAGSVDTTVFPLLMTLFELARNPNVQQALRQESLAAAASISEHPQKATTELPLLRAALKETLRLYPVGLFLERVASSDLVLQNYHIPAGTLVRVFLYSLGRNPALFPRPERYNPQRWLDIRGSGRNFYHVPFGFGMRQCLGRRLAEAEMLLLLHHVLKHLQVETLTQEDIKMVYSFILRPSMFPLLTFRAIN
Experimental: as §1, §2

[3] = biological target: T1, human CYP11B2; experiment: V79MZh11B2 cell assay, [3H]-deoxycorticosterone, HPLC radioflow detection; conditions: V79MZh11B2 cells, 100 nM deoxycorticosterone, 50 min, read-out: V79 Human CYP11B2 IC50
Experimental: (§3) Compounds of the Examples 157-170 were assayed for V79-Human-CYP11B2 and V79-Human-CYP11B1 by modifying the protocol described in J. Steroid Biochem. Mol. Biol. 81; 173-179 (2002). V79MZh11B1 and V79MZh11B2 cells (8×10^5 cells/well) were grown on 24-well culture plates until confluence. Before testing, the DMEM culture medium was removed and 450 μl of fresh DMEM containing the inhibitor was added to each well. After a preincubation step of 60 min at 37° C., the reaction was started by the addition of 50 μl of DMEM in which the substrate deoxycorticosterone (containing 0.15 μCi of [1,2-3H]-deoxycorticosterone in ethanol, final test concentration 100 nM) was dissolved. Incubation times were 25 min for V79MZh11B1 and 50 min for V79MZh11B2 cells at 37° C., respectively. The enzyme reactions were stopped by extracting the supernatant with ethyl acetate. Samples were centrifuged (10.000 g, 5 min) and the solvent was pipetted into fresh cups. After evaporation of the solvent, the steroids were redissolved in 40 μl of […] and analyzed by HPLC. Detection and quantification of the steroids were performed using a radioflow detector. […] The inhibitor concentrations were all in the linear range of the dose-response-curves, so that the coefficients of correlation were at least 0.95 for each determination. The final IC50 value was estimated as the average of three or four independent IC50 values and a selectivity factor corresponding to the ratio between the IC50 values of CYP11B1 and CYP11B2 was calculated for each substance.

[4] = biological target: T2, human CYP11B1; experiment: V79MZh11B1 cell assay, [3H]-deoxycorticosterone, HPLC radioflow detection; conditions: V79MZh11B1 cells, 100 nM deoxycorticosterone, 25 min, read-out: V79 Human CYP11B1 IC50
Experimental: as §3

| Molecule | IC50 [1] [nM] | IC50 [2] [nM] | IC50 [3] [nM] | IC50 [4] [nM] |
| --- | --- | --- | --- | --- |
| COc1c(C)cncc1-c1cc2c(cc1F)-n1c(C)nnc1CC2 [Example 122, 8-fluoro-7-(4-methoxy-5-methylpyridin-3-yl)-1-methyl-4,5-dihydro-[1,2,4]triazolo[4,3-a]quinoline] | 32 | > 10000 |  |  |
| Cc1nnc2n1-c1c(F)cc(-c3cncc(C(F)(F)F)c3)cc1CC2 [Example 161, 9-fluoro-1-methyl-7-(5-trifluoromethyl-pyridin-3-yl)-4,5-dihydro-[1,2,4]triazolo [4,3-a]quinoline] |  |  | 57.2 | 3570 |
| CCc1c(F)cncc1-c1cc2c(c(F)c1F)-n1c(C)nnc1CC2 [Example 170, 7-(4-ethyl-5-fluoropyridin-3-yl)-8,9-difluoro-1-methyl-4,5-dihydro-[1,2,4]triazolo[4,3-a]quinoline] |  |  | 41 | 17300 |
| 9-chloro-7-(5-chloro-4- methylpyridin-3-yl)-1- methyl-4,5-dihydro- [1,2,4]triazolo[4,3- a]quinoline [Example 93] | 6 | 765 |  |  |
| Cc1nnc2n1-c1c(F)cc(-c3cccnc3)cc1CC2 [Example 165, 9-fluoro-1-methyl-7-pyridin-3-yl-4,5-dihydro-[1,2,4]triazolo[4,3-a]quinoline] |  |  | 62.5 | 17000 |
| Cc1nnc2n1-c1c(F)cc(-c3cncc(C(C)O)c3)cc1CC2 (stereo not shown) [Example 159, 1-[5-(9-fluoro-1-methyl-4,5-dihydro-[1,2,4]triazolo[4,3-a]quinolin-7-yl)-pyridin-3-yl]-ethanol] |  |  | 28.3 | 3910 |
| Cc1nnc2n1-c1cc(Cl)c(-c3cncc4ccccc34)cc1CC2 [Example 113, 8-chloro-7-(isoquinolin-4-yl)-1-methyl-4,5-dihydro-[1,2,4]triazolo[4,3-a]quinoline] | 17 | > 10000 |  |  |
| Cc1nnc2n1-c1c(F)cc(-c3cncc(F)c3)cc1CC2 [Example 157, 9-fluoro-7-(5-fluoro-pyridin-3-yl)-1-methyl-4,5-dihydro-[1,2,4]triazolo[4,3-a]quinoline] |  |  | 89.7 | 29500 |
| Cc1nnc2n1-c1cc(F)c(-c3cccnc3)cc1CC2 [Example 167, 8-fluoro-1-methyl-7-pyridin-3-yl-4,5-dihydro-[1,2,4]triazolo[4,3-a]quinoline] |  |  | 131 | 12600 |
| CCc1c(F)cncc1-c1cc(F)c2c(c1)CCc1nnc(C)n1-2 [Example 169, 7-(4-ethyl-5-fluoropyridin-3-yl)-9-fluoro-1-methyl-4,5-dihydro-[1,2,4]triazolo[4,3-a]quinoline] |  |  | 11 | 3070 |
| Fc1cc(-c2cccnc2)cc2c1-n1cnnc1CC2 [Example 166, 9-fluoro-7-pyridin-3-yl-4,5-dihydro-[1,2,4]triazolo[4,3-a]quinoline] |  |  | 172 | 16100 |
| Cc1nnc2n1-c1c(F)cc(-c3cncc4ccccc34)cc1CC2 [Example 164, 9-fluoro-7-isoquinolin-4-yl-1-methyl-4,5-dihydro-[1,2,4]triazolo[4,3-a]quinoline] |  |  | 2.2 | 110 |
| Fc1cc2c(cc1-c1cccnc1)CCc1nncn1-2 [Example 168, 8-fluoro-7-pyridin-3-yl-4,5-dihydro-[1,2,4]triazolo[4,3-a]quinoline] |  |  | 244 | 7900 |
| Cc1nnc2n1-c1c(Cl)cc(-c3cnccc3C3CC3)cc1CC2 [Example 96, 9-chloro-7-(4-cyclopropylpyridin-3-yl)-1-methyl-4,5-dihydro-[1,2,4]triazolo[4,3-a]quinoline] | 48 | 6930 |  |  |
| Cc1ccncc1-c1cc(F)c2c(c1)CCc1nnc(C)n1-2 [Example 163, 9-fluoro-1-methyl-7-(4-methyl-pyridin-3-yl)-4,5-dihydro-[1,2,4]triazolo[4,3-a]quinoline] |  |  | 4.2 | 1770 |
| CC(=O)c1cncc(-c2cc(F)c3c(c2)CCc2nnc(C)n2-3)c1 [Example 160, 1-[5-(9-fluoro-1-methyl-4,5-dihydro-[1,2,4]triazolo[4,3-a]quinolin-7-yl)-pyridin-3-yl]-ethanone] |  |  | 87.6 | 6970 |
| Cc1nnc2n1-c1c(Cl)cc(-c3cnccc3C(F)(F)F)cc1CC2 [Example 83, 9-chloro-1-methyl-7-(4-(trifluoromethyl)pyridin-3-yl)-4,5-dihydro-[1,2,4] triazolo[4,3-a]quinoline] | 22 | > 30000 |  |  |
| CCc1c(F)cncc1-c1cc(Cl)c2c(c1)CCc1nnc(C)n1-2 [Example 80, 9-chloro-7-(4-ethyl-5-fluoropyridin-3-yl)-1-methyl-4,5-dihydro[1,2,4]triazolo-[4,3-a]quinoline] | 7 | 3140 |  |  |
| Cc1nnc2n1-c1c(F)cc(-c3cncc(-c4ccccc4)c3)cc1CC2 [Example 162, 9-fluoro-1-methyl-7-(5-phenyl-pyridin-3-yl)-4,5-dihydro-[1,2,4]triazolo[4,3-a]quinoline] |  |  | 7.1 | 428 |
| COc1cncc(-c2cc(F)c3c(c2)CCc2nnc(C)n2-3)c1 [Example 158, 9-fluoro-7-(5-methoxy-pyridin-3-yl)-1-methyl-4,5-dihydro-[1,2,4]triazolo[4,3-a] quinoline] |  |  | 20.3 | 1810 |
